Patent EP0094586A2, “Glycerol derivatives, process for preparing same and pharmaceutical composition containing same” (ONO PHARMACEUTICAL CO., LTD., priority 1982, dated 1983)

Experiments:
[1] = target: phospholipase A2 obtained from lung of guinea-pig; assay: Inhibitory effect on phospholipase A2 (modified method of Shakir, 14C-arachidonyl phosphatidylcholine substrate); assay type: biochemical; details: enzyme from lung of guinea-pig; substrate L-B-[1-14C]-arachidonyl-a'-stearoyl-phosphatidylcholine
Protocol: (2) Inhibitory effect on phospholipase A
The activity of the enzyme was examined by modification of the method of Shakir by using L-B-[1-^14C]- arachidonyl-a'-stearoyl-phosphatidylcholine as substrate and phospholipase A2 obtained from lung of guinea-pig as enzyme [cf. Anal. Biochem., 114, 67 (1981)].
(§1) The evaluation is conducted using the concentration of compounds of the present invention required to produce a 50% inhibition of each effect, i.e. IC50.

[2] = target: phospholipase C obtained from lung of guinea-pig; assay: Inhibitory effect on phospholipase C (method of Rittenhouse-Simmons, 3H-labelled phosphatidyl-inositol substrate); assay type: biochemical; details: enzyme from lung of guinea-pig; substrate 3H-myoinositol labelled phosphatidyl-inositol from rat liver microsome
Protocol: (3) Inhibitory effect on phospholipase C
The activity of the enzyme was examined by the method of Rittenhouse-Simmons by using ^3H-myoinsitol labelled phosphatidyl-inositol biosynthesized in microsome of liver in rat as substrate and phospholipase C obtained from lung of guinea-pig as enzyme [cf. J. Clin. Invest., 63, 580 (1979)].
as §1

[3] = system: mice; assay: Acute toxicity by intravenous administration; assay type: in vivo; details: intravenously administered to tail vein in ten mice at the dose of 30 mg/kg
Protocol: On the other hand, it was confirmed that the acute toxicity of all extent of the compounds of the present invention was more than 30 mg/kg by intravenous administration. Therefore, glycerol derivatives of the present invention may be considered to be sufficiently safe and suitable for medical use. For example, the mortality (dead/used) in glycerol derivatives of the present invention, i.e. compounds prepared in Example l(g), l(v), 5(d), 12(b), 12(n), 12(o), 12(s) and 12(x) was 0/10, 0/10, 0/10, 1/10/ 0/10, 0/10, 0/10 and 0/10, respectively, when each glycerol compound was intravenously administered to tail vein in ten mice at the dose of 30 mg/kg.

[4] = target: PAF-induced platelet aggregation (Cavia porcellus, UniProt P21556); assay: Inhibitory effect on PAF-induced platelet aggregation (method of Born, platelet rich plasma); assay type: cell-based; details: platelet rich plasma from male guinea-pig; PAF (10 nM)-induced aggregation
Protocol: (1) Inhibitory effect on PAF-induced platelet aggregation
A mixture of 9 parts of blood obtained from male guinea-pig, and one part of 3.8X trisodium citrate was centrifuged for 10 minutes at 120 x g at room temperature to obtain platelet rich plasma (PRP). Using obtained PRP, PAF (lOnM)-induced aggregation was determined by the method of Born [cf. J. Physiol., 162, 67 (1962)].
as §1

Chain of PAF-induced platelet aggregation (P21556 whole entry): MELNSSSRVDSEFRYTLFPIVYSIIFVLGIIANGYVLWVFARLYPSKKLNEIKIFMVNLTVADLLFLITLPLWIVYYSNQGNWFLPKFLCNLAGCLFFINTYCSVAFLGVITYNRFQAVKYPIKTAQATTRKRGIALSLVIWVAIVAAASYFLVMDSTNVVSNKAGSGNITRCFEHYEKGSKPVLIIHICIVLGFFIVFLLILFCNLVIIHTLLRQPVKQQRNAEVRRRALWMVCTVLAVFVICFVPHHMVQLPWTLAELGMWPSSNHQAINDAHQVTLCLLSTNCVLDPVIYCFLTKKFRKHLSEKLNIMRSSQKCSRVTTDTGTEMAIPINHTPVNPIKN

Row | Molecule | IC50 [1] [µM] | IC50 [2] [µM] | mortality (dead/used) [3] | IC50 [4] [µM]
1 | CCCCCCCCCCCCCCCCOCC(COCCCC[N+](C)(C)C)OCc1ccccc1 (racemic) [1 (g), (2RS)-l-0-hexadecyl-2-0-benzyl-3-0-[4-(N,N,N-trimethylammonio)butyl]glycerol chloride] | 130 | 180 | 0/10 | 
2 | CCCCCCCCCCCCCCCCOCC(COC(=O)CCC[N+](C)(C)C)OCc1ccccc1 (racemic) [1 (v), (2RS)-1-0-hexadecyl-2-0-benzyl-3-0-[4-(N,N,N-trimethylammonio)-butyryl]glycerol halide] |  |  | 0/10 | 
3 | CCCCCCCCCCCCCCCCOCC(O)COCCCC[N+](C)(C)C (racemic) [5 (d), (2RS)-1-0-hexadecyl-3-0-[4-(N,N,N-trimethylammonio)butyl]glycerol halide] | 240 | 660 | 0/10 | 
4 | CCCCCCCCCCCCCCCCSCC(COCCCC[N+](C)(C)C)OCc1ccccc1 (racemic) [12 (b), (2RS)-1-hexadecylthio-2-0-benzyl-3-0-[4-(N,N,N-trimethylammanio)-butyl]-2,3-propanediol halide] |  |  | 1/10 | 
5 | CCCCCCCCCCCCCCCCOCC(COCCCC[N+](C)(C)C)OC(=O)c1ccccc1 (racemic) [12 (n), (2RS)-l-0-hexadecyl-2-0-benzoyl-3-0-[4-(N,N,N-trimethylammonio)-butyl]glycerol halide] |  |  | 0/10 | 
6 | CCCCCCCCCCCCCCCCOCC(COCCCC[N+](C)(C)C)OC(=O)NC (racemic) [12 (o), (2RS)-1-0-hexadecyl-2-0-(N-methylcarbaraoyl)-3-0-[4-(N,N,N-trimethylammonio)butyl]glycerol halide] |  |  | 0/10 | 
7 | CCCCCCCCCCCCCCCCOCC(COCCCC[N+](C)(C)C)SCC (racemic) [12 (s), (2RS)-l-0-hexadecyl-2-ethylthio-3-0-[4-(N,N,N-trimethylammonio)-butyl]-1,3-propanediol halide] |  |  | 0/10 | 
8 | (2RS)-1-0-hexadecyl-2-[ethoxy(thiocarbonyl)thio]-3-0-[4-(N,N,N-trimethylammonio)butyl]-1,3-propanediol halide [12 (x)] | 240 | 200 | 0/10 | 3.8
